Laboratory results taken from patent US20240092835A1, “NOVEL PEPTIDES CAPABLE OF ALTERING NK CELL ACTIVITY” (Massachusetts Institute of Technology, priority 2022, published 2024).
Where no end group is shown, it is not given here.

Columns and labels:
HLA-E = biological target: T1, HLA-E (Homo sapiens, UniProt P13747); assay: HLA-E surface stabilization assay with RMA-S/HLA-E cells; assay type: cell-based; conditions: 30 μM peptide, 16 hours; for HLA-E surface expression stability (GeoMFI): anti-HLA-E antibody
T1 construct: expressed in transfected cells; host or cells: RMA-S/HLA-E cells (antigen processing-defective lymphoma cell line)
Experimental: HLA-E surface expression was assessed by measuring geometric mean fluorescence intensity (GeoMFI) in RMA-S cells following immunofluorescence staining with an anti-HLA-E antibody (Table 14). Increased GeoMFI was indicative of increased HLA-E surface expression stability following novel peptide exposures (FIG. 3).

CD94/NKG2A = CD94/NKG2A (Homo sapiens, UniProt P26715+Q13241); assay: Steady-state surface plasmon resonance of peptide-HLA-E complex with CD94/NKG2A; assay type: binding; conditions: for Binding of peptide-HLA-E complexes to CD94/NKG2A normalized to a theoretical Rmax: steady-state SPR
Chain of CD94/NKG2A (P26715 94-233 limits assumed): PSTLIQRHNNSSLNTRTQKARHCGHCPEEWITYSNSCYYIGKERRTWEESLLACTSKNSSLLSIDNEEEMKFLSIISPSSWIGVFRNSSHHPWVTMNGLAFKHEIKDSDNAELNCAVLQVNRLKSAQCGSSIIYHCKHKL
Chain of CD94/NKG2A (Q13241 32-179 limits assumed): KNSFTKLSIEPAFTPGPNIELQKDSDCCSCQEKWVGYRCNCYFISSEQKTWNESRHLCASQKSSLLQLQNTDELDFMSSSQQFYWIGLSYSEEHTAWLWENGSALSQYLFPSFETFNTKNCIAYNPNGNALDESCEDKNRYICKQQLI

CD94/NKG2C = CD94/NKG2C (Homo sapiens, UniProt P26717+Q13241); assay: Steady-state surface plasmon resonance of peptide-HLA-E complex with CD94/NKG2C; assay type: binding; conditions: for Binding of peptide-HLA-E complexes to CD94/NKG2C normalized to a theoretical Rmax: steady-state SPR
Chain of CD94/NKG2C (P26717 94-231 limits assumed): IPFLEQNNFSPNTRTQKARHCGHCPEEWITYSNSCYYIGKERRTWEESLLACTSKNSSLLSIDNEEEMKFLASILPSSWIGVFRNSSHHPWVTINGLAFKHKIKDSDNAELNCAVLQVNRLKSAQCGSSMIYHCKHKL
Chain of CD94/NKG2C (Q13241 32-179 limits assumed): as the sequence (Q13241 32-179 limits assumed) above

HLA-E surface expression stability (GeoMFI) (HLA-E; Trial 2): 2029 GeoMFI
HLA-E surface expression stability (GeoMFI) (HLA-E; Trial 3): 1731 GeoMFI
HLA-E surface expression stability (GeoMFI) (HLA-E; Trial 4): 2795 GeoMFI
HLA-E surface expression stabilization strength, approximate GeoMFI (HLA-E; approximate value): approximately 2×10^3 GeoMFI
binding of peptide-HLA-E complex to CD94/NKG2A normalized to a fitted Rmax (CD94/NKG2A; CD94/NKG2A concentration 0 μM): −0.007
binding of peptide-HLA-E complex to CD94/NKG2A normalized to a fitted Rmax (CD94/NKG2A; CD94/NKG2A concentration 0.1 μM): 0.023
binding of peptide-HLA-E complex to CD94/NKG2A normalized to a fitted Rmax (CD94/NKG2A; CD94/NKG2A concentration 0.2 μM): 0.046
binding of peptide-HLA-E complex to CD94/NKG2A normalized to a fitted Rmax (CD94/NKG2A; CD94/NKG2A concentration 0.4 μM): 0.094
binding of peptide-HLA-E complex to CD94/NKG2A normalized to a fitted Rmax (CD94/NKG2A; CD94/NKG2A concentration 0.8 μM): 0.173
binding of peptide-HLA-E complex to CD94/NKG2A normalized to a fitted Rmax (CD94/NKG2A; CD94/NKG2A concentration 1.6 μM): 0.293
binding of peptide-HLA-E complex to CD94/NKG2A normalized to a fitted Rmax (CD94/NKG2A; CD94/NKG2A concentration 3.2 μM): 0.450
binding of peptide-HLA-E complex to CD94/NKG2A normalized to a fitted Rmax (CD94/NKG2A; CD94/NKG2A concentration 6.4 μM): 0.618
binding of peptide-HLA-E complex to CD94/NKG2A normalized to a fitted Rmax (CD94/NKG2A; CD94/NKG2A concentration 12.8 μM): 0.766
binding of peptide-HLA-E complex to CD94/NKG2A normalized to a fitted Rmax (CD94/NKG2A; CD94/NKG2A concentration 25.6 μM): 0.873
binding of peptide-HLA-E complex to CD94/NKG2A normalized to a fitted Rmax (CD94/NKG2A; CD94/NKG2A concentration 51.2 μM): 0.942
binding of peptide-HLA-E complex to CD94/NKG2A normalized to a fitted Rmax (CD94/NKG2A; CD94/NKG2A concentration 102.4 μM): 0.954
Binding of peptide-HLA-E complexes to CD94/NKG2A normalized to a theoretical Rmax (CD94/NKG2A; CD94/NKG2A analyte concentration 0.000 μM): −0.005
Binding of peptide-HLA-E complexes to CD94/NKG2A normalized to a theoretical Rmax (CD94/NKG2A; CD94/NKG2A analyte concentration 0.100 μM): 0.017
Binding of peptide-HLA-E complexes to CD94/NKG2A normalized to a theoretical Rmax (CD94/NKG2A; CD94/NKG2A analyte concentration 0.200 μM): 0.034
Binding of peptide-HLA-E complexes to CD94/NKG2A normalized to a theoretical Rmax (CD94/NKG2A; CD94/NKG2A analyte concentration 0.400 μM): 0.070
Binding of peptide-HLA-E complexes to CD94/NKG2A normalized to a theoretical Rmax (CD94/NKG2A; CD94/NKG2A analyte concentration 0.800 μM): 0.131
Binding of peptide-HLA-E complexes to CD94/NKG2A normalized to a theoretical Rmax (CD94/NKG2A; CD94/NKG2A analyte concentration 1.600 μM): 0.221
Binding of peptide-HLA-E complexes to CD94/NKG2A normalized to a theoretical Rmax (CD94/NKG2A; CD94/NKG2A analyte concentration 3.200 μM): 0.339
Binding of peptide-HLA-E complexes to CD94/NKG2A normalized to a theoretical Rmax (CD94/NKG2A; CD94/NKG2A analyte concentration 6.400 μM): 0.465
Binding of peptide-HLA-E complexes to CD94/NKG2A normalized to a theoretical Rmax (CD94/NKG2A; CD94/NKG2A analyte concentration 12.800 μM): 0.577
Binding of peptide-HLA-E complexes to CD94/NKG2A normalized to a theoretical Rmax (CD94/NKG2A; CD94/NKG2A analyte concentration 25.600 μM): 0.657
Binding of peptide-HLA-E complexes to CD94/NKG2A normalized to a theoretical Rmax (CD94/NKG2A; CD94/NKG2A analyte concentration 51.200 μM): 0.709
Binding of peptide-HLA-E complexes to CD94/NKG2A normalized to a theoretical Rmax (CD94/NKG2A; CD94/NKG2A analyte concentration 102.400 μM): 0.718
binding of peptide-HLA-E complex to CD94/NKG2C normalized to a fitted Rmax (CD94/NKG2C; CD94/NKG2C concentration 0 μM): −0.005
binding of peptide-HLA-E complex to CD94/NKG2C normalized to a fitted Rmax (CD94/NKG2C; CD94/NKG2C concentration 0.1 μM): 0.003
binding of peptide-HLA-E complex to CD94/NKG2C normalized to a fitted Rmax (CD94/NKG2C; CD94/NKG2C concentration 0.2 μM): 0.009
binding of peptide-HLA-E complex to CD94/NKG2C normalized to a fitted Rmax (CD94/NKG2C; CD94/NKG2C concentration 0.4 μM): 0.023
binding of peptide-HLA-E complex to CD94/NKG2C normalized to a fitted Rmax (CD94/NKG2C; CD94/NKG2C concentration 0.8 μM): 0.046
binding of peptide-HLA-E complex to CD94/NKG2C normalized to a fitted Rmax (CD94/NKG2C; CD94/NKG2C concentration 1.6 μM): 0.089
binding of peptide-HLA-E complex to CD94/NKG2C normalized to a fitted Rmax (CD94/NKG2C; CD94/NKG2C concentration 3.2 μM): 0.168
binding of peptide-HLA-E complex to CD94/NKG2C normalized to a fitted Rmax (CD94/NKG2C; CD94/NKG2C concentration 6.4 μM): 0.281
binding of peptide-HLA-E complex to CD94/NKG2C normalized to a fitted Rmax (CD94/NKG2C; CD94/NKG2C concentration 12.8 μM): 0.443
binding of peptide-HLA-E complex to CD94/NKG2C normalized to a fitted Rmax (CD94/NKG2C; CD94/NKG2C concentration 25.6 μM): 0.621
binding of peptide-HLA-E complex to CD94/NKG2C normalized to a fitted Rmax (CD94/NKG2C; CD94/NKG2C concentration 51.2 μM): 0.755
binding of peptide-HLA-E complex to CD94/NKG2C normalized to a fitted Rmax (CD94/NKG2C; CD94/NKG2C concentration 102.4 μM): 0.867
Binding of peptide-HLA-E complexes to CD94/NKG2C normalized to a theoretical Rmax (CD94/NKG2C; CD94/NKG2C analyte concentration 0 μM): −0.003
Binding of peptide-HLA-E complexes to CD94/NKG2C normalized to a theoretical Rmax (CD94/NKG2C; CD94/NKG2C analyte concentration 0.1 μM): 0.002
Binding of peptide-HLA-E complexes to CD94/NKG2C normalized to a theoretical Rmax (CD94/NKG2C; CD94/NKG2C analyte concentration 0.2 μM): 0.007
Binding of peptide-HLA-E complexes to CD94/NKG2C normalized to a theoretical Rmax (CD94/NKG2C; CD94/NKG2C analyte concentration 0.4 μM): 0.017
Binding of peptide-HLA-E complexes to CD94/NKG2C normalized to a theoretical Rmax (CD94/NKG2C; CD94/NKG2C analyte concentration 0.8 μM): 0.034
Binding of peptide-HLA-E complexes to CD94/NKG2C normalized to a theoretical Rmax (CD94/NKG2C; CD94/NKG2C analyte concentration 1.6 μM): 0.066
Binding of peptide-HLA-E complexes to CD94/NKG2C normalized to a theoretical Rmax (CD94/NKG2C; CD94/NKG2C analyte concentration 3.2 μM): 0.124
Binding of peptide-HLA-E complexes to CD94/NKG2C normalized to a theoretical Rmax (CD94/NKG2C; CD94/NKG2C analyte concentration 6.4 μM): 0.207
Binding of peptide-HLA-E complexes to CD94/NKG2C normalized to a theoretical Rmax (CD94/NKG2C; CD94/NKG2C analyte concentration 12.8 μM): 0.326
Binding of peptide-HLA-E complexes to CD94/NKG2C normalized to a theoretical Rmax (CD94/NKG2C; CD94/NKG2C analyte concentration 25.6 μM): 0.457
Binding of peptide-HLA-E complexes to CD94/NKG2C normalized to a theoretical Rmax (CD94/NKG2C; CD94/NKG2C analyte concentration 51.2 μM): 0.555
Binding of peptide-HLA-E complexes to CD94/NKG2C normalized to a theoretical Rmax (CD94/NKG2C; CD94/NKG2C analyte concentration 102.4 μM): 0.638
Sequence: TLPKRGLFL [human2, TLPKRGLFL]
